{"source": "patent US20220259202A1", "about": "“1-(4-(AMINOMETHYL)BENZYL)-2-BUTYL-2H-PYRAZOLO[3,4-C]QUINOLIN-4-AMINE DERIVATIVES AND RELATED COMPOUNDS AS TOLL-LIKE RECEPTOR (TLR) 7/8 AGONISTS, AS WELL AS ANTIBODY DRUG CONJUGATES THEREOF FOR USE IN CANCER THERAPY AND DIAGNOSIS” (SUTRO BIOPHARMA, INC., priority 2019, published 2022)", "key": {"human PBMCs": {"system": "human PBMCs", "assay": "Compound-induced immune cell activation (CD86 expression, flow cytometry)", "type": "cell-based", "settings": "monocytes, B cells, cDCs and pDCs (FIG. 1A-1D); 48 hr", "excerpt": "This example evaluates the ability of Compound 1 to stimulate the activation of different immune cells populations (monocyte, B cell, and DCs) in human PBMCs (Peripheral blood mononuclear cells), cyno PBMCs and mouse splenocytes. Compound A, above, and resiquimod, below, were used as controls in this assay\nPeripheral blood mononuclear cells (PBMCs) were isolated from fresh collected blood from two healthy human donors and two cynomolgus monkey donors using Leukosep tube and Nycoprep 1.077 buffer according to the manufacture's recommendation. Mouse splenocytes were isolated from C57/BL6 mouse spleens by macerating and straining over a 70 μm cell strainer. Isolated PBMCs or splenocytes were then frozen done using frozen medium. On the day of the assay, PBMCs or splenocytes were thawed and cultured in PBMC culture medium (RPMI supplemented with 10% heat-inactivated fetal bovine serum from Hyclone, 1% Penicillin/Streptomycin and 2 mmol/L-glutamax). 300k of PBMC or splenocytes in 50 μL of culture medium were seeded in 96-well cell culture plates. 50 μL of the test articles (formulated at 2× of starting concentration, 1:4 serial dilution) were then added into the well. The cell mixtures were co-cultured in the presence of test articles and 10 pg/mL LPS-RS for 48 hr and collected by Accutase. […] Cells were washed, fixed with 2% PFA overnight, and read on the Attune NxT cytometer (Thermo Fisher). […]"}, "human TLR8": {"biological_target": "T1, human TLR8 (Homo sapiens, UniProt Q9NR97)", "T1 construct": "host or cells: HEK293", "T1 sequence (Q9NR97 27-1041)": "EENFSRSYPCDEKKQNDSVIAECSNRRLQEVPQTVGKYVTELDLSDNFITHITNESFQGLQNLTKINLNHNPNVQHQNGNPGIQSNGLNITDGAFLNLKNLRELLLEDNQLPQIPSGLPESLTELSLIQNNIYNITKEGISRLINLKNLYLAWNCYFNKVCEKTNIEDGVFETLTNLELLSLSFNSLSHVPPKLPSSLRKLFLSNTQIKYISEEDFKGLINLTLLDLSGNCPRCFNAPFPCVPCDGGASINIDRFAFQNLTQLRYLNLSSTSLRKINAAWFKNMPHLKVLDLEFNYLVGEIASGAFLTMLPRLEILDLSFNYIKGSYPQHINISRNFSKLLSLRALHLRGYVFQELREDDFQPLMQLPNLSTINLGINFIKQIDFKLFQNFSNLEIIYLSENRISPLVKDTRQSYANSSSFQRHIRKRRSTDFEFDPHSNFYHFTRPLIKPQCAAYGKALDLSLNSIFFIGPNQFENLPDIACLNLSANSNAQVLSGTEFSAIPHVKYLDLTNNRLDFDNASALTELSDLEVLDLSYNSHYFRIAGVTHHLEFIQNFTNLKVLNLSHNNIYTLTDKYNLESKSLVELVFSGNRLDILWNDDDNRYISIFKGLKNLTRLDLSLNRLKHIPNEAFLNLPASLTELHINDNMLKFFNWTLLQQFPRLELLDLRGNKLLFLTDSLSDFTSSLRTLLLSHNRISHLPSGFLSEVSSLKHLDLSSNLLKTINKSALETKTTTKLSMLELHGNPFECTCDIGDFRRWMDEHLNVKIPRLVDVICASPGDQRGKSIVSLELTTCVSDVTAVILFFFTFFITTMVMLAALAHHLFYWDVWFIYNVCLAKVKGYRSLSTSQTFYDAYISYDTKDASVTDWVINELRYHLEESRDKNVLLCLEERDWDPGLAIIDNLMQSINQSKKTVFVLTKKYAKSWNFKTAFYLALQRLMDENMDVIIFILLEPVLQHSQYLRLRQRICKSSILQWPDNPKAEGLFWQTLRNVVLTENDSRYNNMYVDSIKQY", "assay": "HEK293 SEAP reporter assay, human TLR8 (Biological Example 1)", "type": "cell-based", "settings": "HEK293-humanTLR8 reporter cells, 4 hrs; read-out: hTLR8 EC50", "description": "In this example, the activity of the TLR7 agonists to activate human TLR7, hTLR7 (or human TLR8, hTLR8, or mouse TLR7, mTLR7) pathway was evaluated on HEK293 reporter cells transfected with human TLR7 (or mouse TLR7 or human TLR8) and an inducible SEAP (secreted embryonic alkaline phosphatase) reporter gene. The SEAP reporter gene is placed under the control of the IFN-β minimal promoter fused to five NF-κB and AP-1-binding sites. Stimulation with a TLR7 agonist activates NF-KB and AP-1 which induces the production of SEAP. Levels of SEAP was determined with HEK-Blue Detection medium.\nHEK293-humanTLR7, HEK293-mouseTLR7 and HEK293-humanTLR8 reporter cell lines were purchased from Invivogen and cell lines were maintained in manufacture recommended culture medium with required supplemental antibiotics. On the day of assay, the cells were harvested with Accutase and counted by the Vi-CELL Cell Viability Analyzers. Cells were re-suspended in HEK blue detection medium and a total of 10000 cells were seeded in each well of a 384-well flat bottom plate. Serial dilutions of TLR7 agonists free drugs (1:3 serial dilution starting from 5 μM) was added into treatment wells. Assay plates were cultured at 37° C. in a CO2 incubator for […]. HEK-Blue™ Detection medium changes to a purple/blue color in the presence of secreted SEAP, which can be detected by spectrophotometry at 620-655 nm. […]"}}}
{"smiles": "CCCCn1nc2c(N)nc3ccccc3c2c1Cc1ccc(CN)cc1", "note": "[Compound 1, 1-(4-(aminomethyl)benzyl)-2-butyl-2H-pyrazolo[3,4-c]quinolin-4-amine]", "values": [{"measurement": "activation of immune cells in human PBMCs", "setting": "human PBMCs", "result": "very potent in activating"}, {"measurement": "EC50", "setting": "human TLR8", "result": 820, "unit": "nM"}]}
